Measured values taken from paper PMC5563523, “Discovery of a ROCK inhibitor, FPND, which prevents cerebral hemorrhage through maintaining vascular integrity by interference with VE-cadherin” (Cell Death Discovery, 2017).

Target: ROCK1 (Homo sapiens, UniProt Q13464)
Assay: Z'-LYTE kinase assay with ROCK1 enzyme, peptide substrate and […] ATP
Format: biochemical

Chain of ROCK1 (Q13464 2-1354): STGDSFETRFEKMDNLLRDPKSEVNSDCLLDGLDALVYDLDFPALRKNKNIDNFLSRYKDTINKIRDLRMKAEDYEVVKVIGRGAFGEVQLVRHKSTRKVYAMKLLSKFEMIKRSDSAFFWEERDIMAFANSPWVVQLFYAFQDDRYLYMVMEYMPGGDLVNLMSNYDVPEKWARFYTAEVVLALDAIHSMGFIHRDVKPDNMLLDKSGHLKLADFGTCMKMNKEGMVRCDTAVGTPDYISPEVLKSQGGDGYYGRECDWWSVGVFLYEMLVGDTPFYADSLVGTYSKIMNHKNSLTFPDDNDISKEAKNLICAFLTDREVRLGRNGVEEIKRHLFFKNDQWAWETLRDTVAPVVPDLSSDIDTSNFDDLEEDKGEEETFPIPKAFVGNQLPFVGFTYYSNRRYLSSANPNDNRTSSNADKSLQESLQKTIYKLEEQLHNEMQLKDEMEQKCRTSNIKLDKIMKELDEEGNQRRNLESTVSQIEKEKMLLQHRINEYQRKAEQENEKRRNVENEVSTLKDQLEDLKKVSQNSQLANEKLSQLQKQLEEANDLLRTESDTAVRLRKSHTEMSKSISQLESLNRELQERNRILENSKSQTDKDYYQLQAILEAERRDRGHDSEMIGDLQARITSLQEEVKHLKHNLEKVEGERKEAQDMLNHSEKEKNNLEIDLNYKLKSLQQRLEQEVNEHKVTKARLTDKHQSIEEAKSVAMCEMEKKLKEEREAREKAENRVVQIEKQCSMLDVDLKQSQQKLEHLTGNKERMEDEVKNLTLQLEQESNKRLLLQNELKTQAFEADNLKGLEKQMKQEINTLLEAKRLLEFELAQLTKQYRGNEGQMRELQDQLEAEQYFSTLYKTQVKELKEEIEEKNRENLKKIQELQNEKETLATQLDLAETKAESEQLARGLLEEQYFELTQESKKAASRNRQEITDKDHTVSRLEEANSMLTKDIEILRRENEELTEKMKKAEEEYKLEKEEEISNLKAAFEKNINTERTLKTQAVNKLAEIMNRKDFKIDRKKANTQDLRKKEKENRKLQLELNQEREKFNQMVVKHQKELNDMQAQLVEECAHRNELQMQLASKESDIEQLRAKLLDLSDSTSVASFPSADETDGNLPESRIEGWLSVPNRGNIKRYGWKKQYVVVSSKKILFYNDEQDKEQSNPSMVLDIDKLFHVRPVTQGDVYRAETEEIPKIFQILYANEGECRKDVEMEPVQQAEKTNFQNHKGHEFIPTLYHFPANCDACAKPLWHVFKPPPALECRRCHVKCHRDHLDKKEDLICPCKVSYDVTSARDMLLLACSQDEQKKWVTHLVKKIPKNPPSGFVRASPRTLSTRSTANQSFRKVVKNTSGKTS

For `Nc1nc(CN2CCN(c3ccccc3F)CC2)nc(Nc2cccc3ccccc23)n1` [FPND, 6-[4-(2-fluorophenyl)-1-piperazinyl]methyl-N-1-naphthyl-1,3,5-triazine-2,4-diamine], the IC50 was 11.2 ± 2.2 µM.
